Test results taken from ChEMBL document CHEMBL4665768, “Monacycliones G-K and ent-Gephyromycin A, Angucycline Derivatives from the Marine-Derived Streptomyces sp. HDN15129” (J Nat Prod, 2020).
Counter-ions that a name gives are not always drawn.

What was measured:
PC-3 = assay: Cytotoxicity against human PC-3 cells assessed as reduction in cell viability by SRB assay; format: functional, cell-based
ASPC1 = assay: Cytotoxicity against human ASPC1 cells assessed as reduction in cell viability by SRB assay; format: functional, cell-based
U-87 MG = assay: Cytotoxicity against human U87 cells assessed as reduction in cell viability by SRB assay; format: functional, cell-based, U-87MG ATCC
Bel-7402 = assay: Cytotoxicity against human Bel-7402 cells assessed as reduction in cell viability by SRB assay; format: functional, cell-based
SH-SY5Y = assay: Cytotoxicity against human SH-SY5Y cells assessed as reduction in cell viability by SRB assay; format: functional, cell-based
HCT-116 = assay: Cytotoxicity against human HCT-116 cells assessed as reduction in cell viability by SRB assay; format: functional, cell-based
K562 = assay: Cytotoxicity against human K562 cells assessed as reduction in cell viability by MTT assay; format: functional, cell-based
HL-60 = assay: Cytotoxicity against human HL-60 cells assessed as reduction in cell viability by MTT assay; format: functional, cell-based

Row | Structure (SMILES) | IC50 (PC-3) [µM] | IC50 (ASPC1) [µM] | IC50 (U-87 MG) [µM] | IC50 (Bel-7402) [µM] | IC50 (SH-SY5Y) [µM] | IC50 (HCT-116) [µM] | IC50 (K562) [µM] | IC50 (HL-60) [µM]
1 | COc1cccc2c1C(=O)c1c(O)c3c(c(O)c1C2=O)C[C@@](O)(C(=O)CO)C[C@@H]3O[C@H]1C[C@H](N)[C@H](O)[C@H](C)O1 [DOXORUBICIN HYDROCHLORIDE] | 0.2 | 0.2 | 0.2 | 0.3 | 0.5 |  |  | 
2 | CN[C@H]1CC[C@H](c2ccc3c(c2O)C(=O)c2cc(SC)c4cc(C)cc(O)c4c2C3=O)O[C@H]1C | > 10 | > 10 | > 10 | > 10 | > 10 | > 10 | > 10 | 7.6
3 | CSc1cc2c(c3c1C[C@@](C)(O)CC3=O)C(=O)c1ccc([C@H]3CC[C@H](N(C)C)[C@H](C)O3)c(O)c1C2=O | 7.7 | 7.1 | 7.9 | 10 | 4.3 | 10 | 7.1 | 3.5
